# “Also recorded” adds a separate entry of the source. Square brackets hold non-standard residues; d marks the D form. Ends that are not written are not given here. Peptide text beside a SMILES is read from it. Phe(3-Br) = N[C@@H](Cc1cccc(Br)c1)C(=O)O; Dmt = Cc1cc(O)cc(C)c1C[C@H](N)C(=O)O; β3hF = N[C@H](CC(=O)O)Cc1ccccc1
# Experiments:
# Male CD1 mice = experiment: Radiant heat tail-flick test after s.c. administration, opioids in solution or co-formulated with hydrogelator; type: in vivo, mouse; conditions: for Time after administration at which no effect was detected / Time of peak antinociceptive action: s.c. bolus in solution (morphine 5 mg/kg; 14-MM 2.25 μg)
# Procedure: Male CD1 mice (6-8 weeks old, body weight average 30 g) were obtained from Charles River (Sulzfeld, Germany). Mice were group-housed in a temperature controlled room with a 12 h light/dark cycle and with free access to food and water. All animal studies were conducted in accordance with ethical guidelines and animal welfare standards according to Austrian regulations for animal research, and were approved by the Committee of Animal Care of the Austrian Federal Ministry of Science and Research.
# The radiant heat tail-flick test was used to assess antinociceptive effects of tested drugs after s.c. administration in mice using an UB 37360 Ugo Basile analgesiometer (Ugo Basile s.r.l., Varese, Italy) as described previously (A. Novoa et al., 2012). The reaction time required by the mouse to remove its tail due to the radiant heat was measured and defined as the tail-flick latency. A cut-off time of 10 s was also used in order to minimize tissue damage. The antinociceptive response was expressed as percent of Maximum Possible Effect (% MPE)=[(TL-BL)/(cut-off time-BL)]×100. Data were analyzed with ANOVA using Tukey's multiple comparison test, and graphically processed with the GraphPad Prism Software (GraphPad Software Inc., San Diego, CA).
# (§1) Performed as described in Example 5.
# as §1
# The antinociceptive effect of co-formulations of a peptide hydrogelator as described herein with peptide-based analgesics was investigated in a model of thermal nociception using the tail-flick test in mice. […] The Tail-flick test was performed as described in Example 5.
# MOR = MOR (Homo sapiens, UniProt P35372); experiment: Binding tests (Ki) MOR
# DOR = DOR (Homo sapiens, UniProt P41143); experiment: Binding tests (Ki) DOR
# KOR = KOR (Homo sapiens, UniProt P41145); experiment: Binding tests (Ki) KOR
# [1] = TEM / cryo-TEM fibre morphology of hydrogels; type: physicochemical; conditions: cryoTEM and negative staining, Example 9
# Procedure: Formvar carbon-coated 400-mesh copper grids (Agar Scientific, Stansted, United Kingdom) were treated with plasma using an ELMO Glow discharge system to clean the grid surface and to render the carbon surface hydrophilic. Hydrogel samples were prepared 12 h in advance as described above. Small aliquots of sample (5 μL) were pipetted onto the carbon grids for adsorption. After 30 s, excess of sample was removed by using a Whatman 541 filter paper. The loaded grids were stained during 10 s with 1% uranyl formate after which the grids were air-dried. Samples were analysed using a JEOL JEM-1400 transmission electron microscope, operating at accelerating voltage of 120 kV. Images were recorded on a CMOS TemCam-F416 camera and accessory software of TVIPS.
# 200-mesh copper grids coated with perforated carbon film (Lacey carbon film: ProSci-Tech Old, Australia) were used and were glow discharged in nitrogen for 5 s immediately prior to use. Hydrogel samples were prepared 12 h in advance as described above. Small aliquots of sample (4 μL) were pipetted onto the carbon grids for adsorption. After 30 s, excess of sample was removed by using a Whatman 541 filter paper. The grid was then plunged into liquid ethane cooled by liquid nitrogen. Frozen grids were stored in liquid nitrogen until required. Samples were analysed using a Gatan 626 cryoholder and Tecnai 12 Transmission electron microscope, operating at accelerating voltage of 120 kV. Images were recorded using an FEI Eagle 4k×4k CCD camera.
# L929 mouse fibroblasts = experiment: Cytotoxicity, Live/Dead viability staining on hydrogels (Example 9); type: cell-based
# Procedure: Hydrogels were prepared at 1, 2 or 3 mg/100 μL as duplicate in a 96-well ULA plate (Cat #CORN3474; Corning-Costar, 60 μL each well). The gels were photographed and pre-equilibrated before seeding with cells. For equilibration, gels were incubated at room temperature in 40 μL of L929 culture medium with double-strength Anti-Anti (Cat #15240062, GIBCO) for 2 h prior to seeding with cells. The equilibration medium was removed before cell seeding and retained to examine if the gels dissolved (even partially) or disintegrated into the culture medium. Next, […] mouse fibroblasts (ATCC) were seeded onto hydrogels at a concentration of 200,000 cells/ml in a volume of 50 μl. The cells were photographed immediately after seeding, observed by microscopy 2 h post-seeding and then observed and photographed at 24 h post-seeding. The cell culture medium consisted of MEM+GlutaMAX I (Cat #41090-036; GIBCO); 10% foetal bovine serum (Cat #12003C; SAFC, Sigma), 2× Anti-Anti (Cat #[…]) and 1× Non-Essential Amino Acids (Cat #41090-036; GIBCO).
# Bright field microscopy was performed through use of a IX71 inverted microscope with NIS-Elements F3.0 imaging software (Olympus). The TE2000 Eclipse fluorescent microscope with NIS-Elements AR3.2 software (Nikon) was used for fluorescence imaging microscopy. Automated cell counting was performed on the NC-200 NucleoCounter using proprietary lysis and stabilising reagents and cassettes (ChemoMetec).
# The viability and distribution of cells was assessed using a LIVE/DEAD Viability/Cytotoxicity Kit *for Mammalian cells* (Live-Dead Kit), (Cat #13224; Molecular Probes). Briefly, a working solution of live/dead solution was made as per manufacturer's instructions by adding 1.25 μl of Calcein AM (solution A) to 2.5 ml of pre-warmed PBS. The solution was thoroughly mixed by vortex and 2.5 μl of Ethidium homodimer (solution B), was added before vortexing a second time to mix. Excess medium was removed and the gels rinsed with 20 μl of warm PBS before a 40 μl of Live/Dead kit working solution was added to each well. The plate was incubated in a 37° C. cell culture incubator for 20 min before viewing using a fluorescent microscope. Green fluorescence was emitted from the cytoplasm of viable cells (excitation/emission ˜495 nm/˜515 nm) while dead cell nuclei fluoresced red (excitation/emission ˜495/˜635 nm) allowing a distinction to be made between viable and dead cells.
# in vitro = conditions: human, plasma
# Procedure: Human plasma was obtained from the Belgian Red Cross (Vlaams-Brabant, Leuven). Prior to the stability test, selectivity, stability of the compound in the injection solvent, linearity, accuracy and precision of the method were investigated. Frozen (−20° C.) human plasma samples were thawed and thermostated to 37±2° C. Dissolution of the lyophilized peptide and consecutive dilutions were performed in water. The resulting aqueous solutions of each peptide individually was spiked in human plasma (10:90 v/v) with final plasma concentrations of 9 μM.
# On every time point 100 μL spiked plasma was transferred to a 500 μL Eppendorf tube and a protein crash was performed using the corresponding precipitation solvent (4° C.). Suspensions were vortexed for 15 s and placed at 4° C. for 30 to 45 min. After centrifugation at 18 625 g for 20 min, 100 μL supernatant was diluted with 100 μL water in the injection vial.
# Injection samples were vortexed for 5 sand placed in the autosampler. […] Concentrations were calculated by use of the calibration curve and transferred to a semi-log chart presenting the log concentrations as a function of time. The optimum curve was used to calculate the peptide half-life. Calculations were performed using Microsoft® Office Professional 2010 Excel.
# human plasma = conditions: 37° C.; for cleaved bond / fragment found: up to 60 min
# [2] = Peptide gelation (tilted tube / inverted vial test, minimum gelation concentration); type: physicochemical; conditions: for Minimum gelation concentration (w/v % in PBS): '/' = no gel
# Procedure: The peptide gelation occurred by dissolving the TFA salt of the hexapeptide (2 mg) in 100 μL of PBS solution (pH 7.4) or physiological saline solution (0.9% NaCl).
# Both peptides 2 and 4 (Table 1) gave a transparent gel in the same conditions (PBS 10 mM at pH 7.4 with a minimum gelation concentration of 24 mM; 2% w/v). To evaluate the mechanical properties of these hydrogels in a more quantitative manner, rheological experiments were performed. The viscoelastic properties of the peptide hydrogels were measured by dynamic rheometry at 37° C. This technique allowed to measure the storage modulus G′ (corresponding to the material's stiffness or rigidity), loss modulus G″ (corresponding to the viscous properties of the material) and loss factor tan (o) (ratio of G″ over G′). According to the Winter-Chambon criterion, a material reaches gelation in rheological terms if the phase angle o gets frequency-independent (F. Chambon et al., 1987 and H. Winter et al., 1987).
# The peptide gelation occurred by dissolving the TFA salt of the peptide in 100 μL of PBS solution or physiological saline solution (0.9% NaCl) (pH 7.4).
# The peptide gelation occurs by dissolving the TFA salt of the hydrogelator (1 or 2 mg) in 100 μL of aqueous media, PBS solution (pH 7.4) or physiological saline solution (0.9% NaCl). After successive vortexing and sonication, the gel is left to rest overnight at room temperature.
# The hydrogelation was realized under physiologically relevant conditions, namely via the addition of phosphate-buffered saline (PBS) or sterile physiological saline solution (0.9% NaCl). The needed amount of hydrogelator was weighed in an Eppendorf® and solubilized by the addition of the above solutions. After vortex and sonication steps, the resulting solution was left at room temperature until gelation occurred. The gelation was qualitatively verified by the inverted vial test (if no gravitational flow was visible the gelation was considered successful). It can be noticed that all peptide hydrogelators depicted formed gels in PBS and saline solution at a concentration of 1 to 2% w/v.
# [3] = Dynamic rheometry of hydrogels (storage modulus G′); type: physicochemical
# Procedure: Dynamic rheometry measurements were performed on an AR-G2 rheometer (TA Instruments) equipped with electrically heated plates and a 10 mm-diameter aluminium parallel plate-plate geometry. Viscoelastic properties were measured by oscillatory frequency sweeps at 37° C. in the range between 0.01 and 10 Hz, using a controlled strain of 0.05%. Hydrogel samples were made 12 h in advance. A ring-shaped reservoir filled with a saturated NH4Cl solution was used as a solvent trap.
# Sequence of MOR (P35372 whole entry): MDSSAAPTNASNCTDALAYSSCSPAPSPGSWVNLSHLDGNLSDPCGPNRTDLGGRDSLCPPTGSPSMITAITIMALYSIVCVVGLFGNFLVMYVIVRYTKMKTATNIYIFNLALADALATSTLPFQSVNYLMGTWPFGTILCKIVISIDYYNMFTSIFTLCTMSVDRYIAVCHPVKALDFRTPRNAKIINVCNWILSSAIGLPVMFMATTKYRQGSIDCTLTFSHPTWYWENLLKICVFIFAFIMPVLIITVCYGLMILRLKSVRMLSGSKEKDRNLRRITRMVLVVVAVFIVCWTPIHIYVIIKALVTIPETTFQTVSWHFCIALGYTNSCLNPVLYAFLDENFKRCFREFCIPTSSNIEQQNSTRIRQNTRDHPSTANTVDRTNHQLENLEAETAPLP
# Sequence of DOR (P41143 whole entry): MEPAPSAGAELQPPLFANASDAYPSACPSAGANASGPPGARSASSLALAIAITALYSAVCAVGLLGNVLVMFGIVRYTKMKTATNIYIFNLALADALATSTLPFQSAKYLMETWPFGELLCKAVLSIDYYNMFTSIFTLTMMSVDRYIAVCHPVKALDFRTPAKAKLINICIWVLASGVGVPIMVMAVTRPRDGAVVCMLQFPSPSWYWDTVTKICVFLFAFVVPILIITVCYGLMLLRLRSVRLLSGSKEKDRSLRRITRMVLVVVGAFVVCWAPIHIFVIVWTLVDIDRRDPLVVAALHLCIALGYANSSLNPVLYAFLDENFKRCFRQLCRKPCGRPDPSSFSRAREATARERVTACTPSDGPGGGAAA
# Sequence of KOR (P41145 whole entry): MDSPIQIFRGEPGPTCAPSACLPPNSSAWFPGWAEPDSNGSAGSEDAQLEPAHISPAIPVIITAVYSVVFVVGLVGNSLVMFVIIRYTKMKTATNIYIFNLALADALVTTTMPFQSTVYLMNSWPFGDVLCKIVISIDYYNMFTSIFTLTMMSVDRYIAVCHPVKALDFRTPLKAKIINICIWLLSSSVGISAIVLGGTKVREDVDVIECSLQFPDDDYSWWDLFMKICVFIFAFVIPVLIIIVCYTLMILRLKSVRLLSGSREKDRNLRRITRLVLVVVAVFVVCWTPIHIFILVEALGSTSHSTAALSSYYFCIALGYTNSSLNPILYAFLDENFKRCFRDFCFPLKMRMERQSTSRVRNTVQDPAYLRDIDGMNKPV
molecule,measurement,setting,value
"CO[C@@]12CCC(=O)[C@]3(C)Oc4c(O)ccc5c4[C@@]31CCN(C)[C@@H]2C5 [14-MM, 14-methoxymethopon]","Dose required to produce 80% MPE, times lower than morphine",Male CD1 mice; s.c. bolus,66 times
same,Antinociceptive effect at peak of action (% MPE),"Male CD1 mice; s.c. bolus 2.25 μg, 30 min",80 % of MPE
same,Time after administration at which no effect was detected,Male CD1 mice,4 h
same,Time of peak antinociceptive action,Male CD1 mice,30 min
"Cc1cc(O)cc(C)c1C[C@H](N)C(=O)N1CCC[C@H]1C(=O)N[C@@H](Cc1ccccc1)C(=O)N[C@@H](Cc1ccccc1)C(=O)N[C@@H](CCC(=O)O)C(=O)N[C@@H](Cc1ccccc1)C(=O)N[C@@H](CCC(N)=O)C(=O)N[C@@H](Cc1ccccc1)C(=O)N[C@@H](CCCCN)C(N)=O [CM-54, Dmt-Pro-Phe-Phe-Glu-Phe*-Gln-Phe-Lys-NH2]",Ki,MOR,135 nM
"Cc1cc(O)cc(C)c1C[C@H](N)C(=O)N1CCC[C@H]1C(=O)N[C@@H](Cc1ccccc1)C(=O)N[C@@H](Cc1ccccc1)C(=O)N[C@@H](CCC(N)=O)C(=O)N[C@@H](Cc1ccccc1)C(=O)N[C@@H](CCC(N)=O)C(=O)N[C@@H](Cc1ccccc1)C(=O)N[C@@H](CCCCN)C(N)=O [CM-56, Dmt-Pro-Phe-Phe-Gln-Phe*-Gln-Phe-Lys-NH2] (H-[Dmt]PFFQFQFK-NH2; N-terminus assumed)",Ki,MOR,65 nM
same,Ki,DOR,176 nM
same,Ki,KOR,337 nM
CN1CC[C@]23c4c5ccc(O)c4O[C@H]2[C@@H](O)C=C[C@H]3[C@H]1C5 [morphine],Time after administration at which no effect was detected,Male CD1 mice,3 h
same,Time of peak antinociceptive action,Male CD1 mice,30 min
same,Antinociceptive effect (% MPE),"Male CD1 mice; s.c. bolus in solution, 5 mg/kg (0.15 mg per mouse)",80 % MPE
"NCCCC[C@H](NC(=O)[C@H](Cc1ccccc1)NC(=O)[C@H](CCC(N)=O)NC(=O)[C@H](Cc1ccccc1)NC(=O)C[C@H](Cc1ccccc1)NC(=O)[C@H](CCC(=O)O)NC(=O)[C@@H](N)Cc1ccccc1)C(N)=O [peptide 27, H-Phe-Glu-13;;-homo-Phe-Phe-Gln-Phe-Lys-NH2] (H-FE[β3hF]FQFK-NH2)",Fibre diameter,[1],~5 nm
same,Cytotoxicity in vitro,L929 mouse fibroblasts,showed no cytotoxicity in vitro
same,half-life at 9 μM,in vitro,~25 min
Dmt-DArg-Phe-Phe-Gln-Phe*-Gln-Phe-Lys-NH2,cleaved bond,human plasma,"Gln-Phe, first_seen, 2.5 min; also recorded: Gln-Phe, 7.5 min"
same,fragment found,human plasma,"Dmt-DArg-Phe-OH, 60 min"
Dmt-DLys-Phe-Phe-Glu-Phe*-Gln-Phe-Lys-NH2,cleaved bond,human plasma,"Gln-Phe, first_seen, 2.5 min; also recorded: Glu-Phe, 7.5 min"
Dmt-OLy:s-Phe-Phe-Gln-Phe*-Gln-Phe*-Lys-NH2,fragment found,human plasma,"heptapeptide, first_seen; also recorded: pentapeptide; also recorded: tripeptide"
"FQFQFK-NH2 [peptide 16, H-Phe-Gln-Phe*-Gln-Phe-Lys-NH2]",Minimum gelation concentration (MGC),"[2]; PBS or saline solution, Example 9",1 % w/v
same,Minimum gelation concentration (w/v % in PBS),[2],2 w/v %
same,Fibre diameter,[1],~5 nm
same,Cytotoxicity in vitro,L929 mouse fibroblasts,showed no cytotoxicity in vitro
same,half-life at 9 μM,in vitro,~3 min
H-DLys-DPhe-DGln-DPhe*-DGlu-DPhe-NH2,not cleaved,human plasma; up to 1500 min,remains intact after 25 h of incubation
H-DPhe-DGlu-DPhe*-DGln-DPhe-DLys-NH2,not cleaved,human plasma; up to 5700 min,remained intact after 4 days of incubation
H-Phe(3Br)-Gln-Phe(3Br)-Gln-Phe(3Br)-Lys-NH2 (H-[Phe(3-Br)]Q[Phe(3-Br)]Q[Phe(3-Br)]K-NH2) [peptide 33],Minimum gelation concentration (w/v % in PBS),[2],1-2 w/v %
same,Gel strength compared to the non-halogenated peptide,[3],stronger gels
"KFQFEF-NH2 [peptide 18, H-Lys-Phe-Gln-Phe*-Glu-Phe-NH2]",Minimum gelation concentration (w/v % in PBS),[2],2 w/v %
same,Fibre diameter,[1],~5 nm
same,Cytotoxicity in vitro,L929 mouse fibroblasts,showed no cytotoxicity in vitro
same,half-life at 9 μM,in vitro,~5 min
"WEWQWK-NH2 [peptide 12, H-Trp-Glu-Trp*-Gln-Trp-Lys-NH2]",Minimum gelation concentration (w/v % in PBS),[2],1 w/v %
same,Fibre diameter,[1],~5 nm
same,Cytotoxicity in vitro,L929 mouse fibroblasts,showed no cytotoxicity in vitro
same,half-life at 9 μM,in vitro,~21 min
